Assay results reported in PubChem BioAssay (NCI).
Where “and” joins values, the source holds several entries; their conditions need not be identical. Equal entries are not always repeated.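 Values below derive from 48-hour exposures of cells grown in 96-well plates, with endpoints linearly interpolated between the two concentrations bracketing the appropriate inhibition level. The concentration for 50% growth inhibition is given as GI50. TGI is the concentration that stops growth completely.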

Columns and labels:
Experiment in all cases: DTP human tumour cell line panel, 48 h
[1] = system: SK-OV-3 ovarian
[2] = system: MDA-MB-231 breast
[3] = system: EKVX NSCLC
[4] = system: BT-549 breast
[5] = system: HL-60(TB) leukemia
[6] = system: RPMI-8226 leukemia
[7] = system: TK-10 renal
[8] = system: SF-268 CNS
[9] = system: NCI-H226 lung
[10] = system: SK-MEL-2 melanoma
[11] = system: U251 CNS
[12] = system: HOP-92 NSCLC
[13] = system: M14 melanoma
[14] = system: MOLT-4 leukemia
[15] = system: SK-MEL-5 melanoma
[16] = system: CAKI-1 renal
[17] = system: LOX IMVI melanoma
[18] = system: SK-MEL-28 melanoma
[19] = system: UO-31 renal
[20] = system: HOP-62 NSCLC
[21] = system: UACC-62 melanoma
[22] = system: SW-620 colon
[23] = system: RXF 393 renal
[24] = system: SR leukemia
[25] = system: UACC-257 melanoma
[26] = system: ACHN renal
[27] = system: SN12C renal
[28] = system: DU-145 prostate
[29] = system: MALME-3M melanoma
[30] = system: A549 NSCLC
[31] = system: A498 renal
[32] = system: CCRF-CEM leukemia
[33] = system: IGROV1 ovarian
[34] = system: OVCAR-4 ovarian
[35] = system: MDA-N
[36] = system: HT29 colon
[37] = system: NCI/ADR-RES ovarian
[38] = system: T-47D breast
[39] = system: 786-0 renal
[40] = system: NCI-H23 lung
[41] = system: HCT-15 colon
[42] = system: SNB-75 CNS
[43] = system: NCI-H460 lung
[44] = system: HCC-2998 colon
[45] = system: OVCAR-3 ovarian
[46] = system: OVCAR-8 ovarian
[47] = system: MCF7 breast
[48] = system: K-562 leukemia
[49] = system: SF-539 CNS
[50] = system: HCT-116 colon
[51] = system: PC-3 prostate
[52] = system: HS 578T breast
[53] = system: MDA-MB-435
[54] = system: SNB-19 CNS
[55] = system: COLO 205 colon
[56] = system: OVCAR-5 ovarian
[57] = system: SF-295 CNS
[58] = system: KM12 colon
[59] = system: NCI-H522 lung

## O=C(O)c1c(-c2c3ccc(=O)cc-3oc3cc(O)ccc23)cc2ccccc2c1-c1ccccc1
[1]
  TGI: > 100 µM
[2]
  TGI: > 100 µM
[3]
  TGI: > 100 µM
[4]
  TGI: > 100 µM
[5]
  TGI: > 100 µM
[6]
  TGI: > 100 µM
[7]
  TGI: > 100 µM
[8]
  TGI: > 100 µM
[9]
  TGI: > 100 µM
[10]
  TGI: > 100 µM
[11]
  TGI: > 100 µM
[12]
  TGI: > 100 µM
[13]
  TGI: > 100 µM
[14]
  TGI: 8.37 µM
[15]
  TGI: > 100 µM
[16]
  TGI: > 100 µM
[17]
  TGI: > 100 µM
[18]
  TGI: > 100 µM
[19]
  TGI: > 100 µM
[20]
  TGI: > 100 µM
[21]
  TGI: > 100 µM
[22]
  TGI: > 100 µM
[23]
  TGI: > 100 µM
[24]
  TGI: > 100 µM
[25]
  TGI: > 100 µM
[26]
  TGI: > 100 µM
[27]
  TGI: > 100 µM
[28]
  TGI: > 100 µM
[29]
  TGI: > 100 µM
[30]
  TGI: > 100 µM
[31]
  TGI: > 100 µM
[32]
  TGI: > 67.3 µM
[33]
  TGI: > 100 µM
[34]
  TGI: > 100 µM
[35]
  TGI: > 100 µM
[36]
  TGI: > 100 µM
[37]
  TGI: > 100 µM
[38]
  TGI: > 100 µM
[39]
  TGI: > 100 µM
[40]
  TGI: > 100 µM
[41]
  TGI: > 100 µM
[42]
  TGI: > 100 µM
[43]
  TGI: > 100 µM
[44]
  TGI: > 68.4 µM
[45]
  TGI: > 100 µM
[46]
  TGI: > 100 µM
[47]
  TGI: > 100 µM
[48]
  TGI: > 46.4 µM
[49]
  TGI: > 100 µM
[50]
  TGI: > 100 µM
[51]
  TGI: > 100 µM
[52]
  TGI: > 100 µM
[53]
  TGI: > 100 µM
[54]
  TGI: > 100 µM
[55]
  TGI: > 100 µM
[56]
  TGI: > 100 µM
[57]
  TGI: > 100 µM
[58]
  TGI: > 100 µM
[59]
  TGI: > 100 µM

## COC(=O)c1ccc(=O)c2nc3/c(=C/O)c(O)cc(=O)c3[nH]c12
[1]
  GI50: 2.62 µM
  TGI: 16.4 µM and 20.8 µM
[2]
  GI50: 3.57 µM
  TGI: 19.3 µM and 19.2 µM
[3]
  GI50: 0.557 µM
  TGI: 8.52 µM and 14.2 µM
[4]
  GI50: 0.347 µM
  TGI: 6.14 µM and 12.1 µM
[5]
  GI50: 0.601 µM
  TGI: 19.3 µM
[6]
  GI50: 0.393 µM
  TGI: 30.7 µM and 3.93 µM
[7]
  GI50: 1.3 µM
  TGI: 21.1 µM and 17.5 µM
[8]
  GI50: 1.2 µM
  TGI: 24.9 µM and 18.6 µM
[9]
  GI50: 0.726 µM
  TGI: 12.2 µM and 12.8 µM
[10]
  GI50: 2.27 µM
  TGI: 15 µM and 16.7 µM
[11]
  GI50: 0.176 µM
  TGI: 28.6 µM and 12.3 µM
[12]
  TGI: 6.03 µM and 11.1 µM
[13]
  GI50: 1.07 µM
  TGI: 24.9 µM and 24.5 µM
[14]
  GI50: 0.562 µM
  TGI: 12.1 µM and > 60.8 µM
[15]
  GI50: 1.56 µM
  TGI: 9.1 µM and 13.5 µM
[16]
  GI50: 0.581 µM
  TGI: 12.8 µM and 12.6 µM
[17]
  GI50: 0.662 µM
  TGI: 20.3 µM and 15.4 µM
[18]
  GI50: 4.17 µM
  TGI: 19.8 µM and 21.1 µM
[19]
  GI50: 0.578 µM
  TGI: 8.11 µM and 18 µM
[20]
  GI50: 0.461 µM
  TGI: 18.7 µM and 16.2 µM
[21]
  GI50: 1.01 µM
  TGI: 7.26 µM and 7.01 µM
[22]
  GI50: 1.21 µM
  TGI: > 60.4 µM and 18.9 µM
[23]
  GI50: 0.637 µM
  TGI: 43.3 µM and 17.1 µM
[24]
  GI50: 0.361 µM
  TGI: > 64.9 µM
[25]
  GI50: 2.74 µM
  TGI: 16.1 µM and 27.8 µM
[26]
  GI50: 0.478 µM
  TGI: 16.6 µM and 14.5 µM
[27]
  GI50: 0.44 µM
  TGI: 20 µM and 12.8 µM
[28]
  TGI: 16.5 µM and 17.6 µM
[29]
  GI50: 3.16 µM
  TGI: 11.1 µM and 18.6 µM
[30]
  GI50: 0.514 µM
  TGI: 14.3 µM and 45 µM
[31]
  TGI: 30.8 µM and 17.4 µM
[32]
  GI50: 0.397 µM
  TGI: > 100 µM and 17.2 µM
[33]
  GI50: 0.469 µM
  TGI: 3.31 µM and 17.5 µM
[34]
  GI50: 3.58 µM
  TGI: 31.4 µM and 29.8 µM
[35]
  TGI: 24.6 µM
[36]
  GI50: 1.03 µM
  TGI: > 39.8 µM and 28.5 µM
[37]
  GI50: 0.379 µM
  TGI: > 33.6 µM and 13.8 µM
[38]
  GI50: 1.29 µM
  TGI: 8.65 µM and 48.2 µM
[39]
  GI50: 1.52 µM
  TGI: 23.8 µM and 17.9 µM
[40]
  GI50: 0.514 µM
  TGI: 9.33 µM and 16.7 µM
[41]
  GI50: 0.42 µM
  TGI: 21.4 µM and 14.5 µM
[42]
  GI50: 0.482 µM
  TGI: 16.4 µM and 13.6 µM
[43]
  GI50: 0.357 µM
  TGI: 23.8 µM and 19.7 µM
[44]
  GI50: 2.94 µM
  TGI: 25 µM and 18.9 µM
[45]
  GI50: 1.04 µM
  TGI: 25.7 µM and 15 µM
[46]
  GI50: 0.364 µM
  TGI: 2.95 µM and 24.9 µM
[47]
  GI50: 0.652 µM
  TGI: 17.5 µM and 22.8 µM
[48]
  GI50: 0.372 µM
  TGI: > 100 µM
[49]
  GI50: 1.21 µM
  TGI: 15.6 µM and 14.5 µM
[50]
  GI50: 0.321 µM
  TGI: 14.6 µM and 11.8 µM
[51]
  GI50: 0.525 µM
  TGI: 17.1 µM and 16.6 µM
[52]
  GI50: 0.301 µM
  TGI: 23 µM and 20.1 µM
[53]
  GI50: 0.559 µM
  TGI: 23.7 µM and 13.2 µM
[54]
  GI50: 1.28 µM
  TGI: 32.2 µM and 20.4 µM
[55]
  GI50: 6.49 µM
  TGI: > 100 µM
[56]
  GI50: 3.38 µM
  TGI: 13 µM and 22.4 µM
[57]
  GI50: 0.153 µM
  TGI: 14.3 µM and 8.64 µM
[58]
  GI50: 1.6 µM
  TGI: 20.1 µM and 18.1 µM
[59]
  GI50: 0.389 µM
  TGI: 31 µM and 18.2 µM
